Patent US12479800B2, “Phenylpropionamide compound and use thereof” (MEDSHINE DISCOVERY INC., priority 2020, dated 2025)
Where a SMILES comes first, the peptide text is derived from it. [ ]: non-standard residue; d: D form. The star is where a group is joined. Gly(N-(2R-Ph-propyl)) = C[C@@H](CNCC(=O)O)c1ccccc1; Piperidin1yl(4-NH2,4-COOH) = NC1(C(=O)O)CCN(*)CC1; dGly(cPent) = N[C@@H](C(=O)O)C1CCCC1; dAla(cPr) = N[C@H](CC1CC1)C(=O)O; X1 = CC(=O)N1CC2(CCN(*)CC2)C1

Key:
Kappa receptor = Kappa receptor (Homo sapiens (Human), UniProt P41145); test: cAMP test of Kappa receptor; format: cell-based; conditions: KOR cAMP cells; read-out: EC50 value of the compound to Kappa receptor
Method: Experimental Embodiment 1: cAMP Test of Kappa Receptor
Experimental buffer: 1*HBSS (+/+) (SIGMA #H1387)+20 mM HEPES (LONZA #17-737E)
Stimulation buffer (STB): 200 μM IBMX (SIGMA #I7018) and 3 μM NKH477 (SIGMA #N3290) experimental buffer
Experimental Methods and Steps
The compound powder was dissolved with DMSO (Amresco #0231), and the concentration of the compound solution was 10 mM. 1 μL of the test compound was taken, and 49 μL of DMSO was added thereto, and the mixture was diluted to 200 μM of solution.
A LDV 384-well plate was taken, and the compound solution diluted in the previous step was respectively added to wells A1 to H1; a pre-prepared 200 μM of U-50488 (Tocris #0495/25) was taken and added to well P1; 10.8 μL of DMSO was added to each well of A2 to A11, […], and P2 to P11, respectively, and the mixture was centrifuged at 1000 rpm for 30 seconds.
Continuous gradient dilutions of compounds were performed with bravo, and the first column of LDV plate prepared in the previous step was taken as the initial concentration column, and 5 μL was sucked into the next column each time and blown and mixed evenly.
After the dilution was completed, 10 μL 200 μM of U-50488 was added to well A24 as HPE (100% inhibition rate activity), and 10 μL of DMSO was added to well P24 as ZPE (0% inhibition rate activity), and the mixture was centrifuged at 1000 rpm for 30 seconds.
According to the experimental layout, the compound solution diluted in the previous step was transferred to the experimental plate Corning 3824 with Echo 550, 50 nL per well.
A set of frozen KOR cAMP cells was taken from the −80° C. refrigerator and thawed in a 37° C.-water bath.
After thawing, the cells in the tube were aspirated into a 15 mL centrifuge tube, and 4 mL of experimental buffer was added thereto. […]
Cell density was counted and adjusted on a cell counter to 1.5*10^6 cells/mL. […]
Experimental plates were read with Envision.

[1] = Plasma protein binding rate (PPB) test, SD rat plasma; format: in vitro ADME; conditions: 2 μM, equilibrium dialysis 4 hours 37° C.
Method: (§1) To test the protein binding rate of the test compound in human and SD rat plasma.
(§2) The frozen plasma was thawed in flowing cold tap water, and then the plasma was centrifuged at 3220×g for 5 minutes to remove the suspension and precipitate. The pH of plasma was determined, and only the plasma with a pH between 7.0 to 8.0 could be used for experiments.
(§3) The experiment was used a 96-well balanced dialysis plate (HTDialysis device) to determine the plasma protein binding rate of the test compound and control compound. Before the experiment was started, the dialysis membrane was pretreated according to the description, and then the dialysis device was assembled as required. The blank plasma of human and SD rats (plasma purchased from BioreclamationIVT) was taken, and the test compound working solution or the warfarin working solution was added to make the final concentration of the test compound and warfarin in the plasma samples both 2 μM. The sample was mixed well. […] The unbound rate (Unbound) %, bound rate (Bound) % and recovery rate (Recovery) % of the compound were calculated by the following formula: % Unbound=100*FC/TC, % Bound=100−% Unbound, % Recovery=100*(FC+TC)/T0. […]

Rat hepatocyte = test: Metabolic stability (HMS) study in rat hepatocytes; format: in vitro ADME; conditions: 0.5×10^6 cells/mL
Method: (§4) To test the metabolic stability of the test compound in human and rat hepatocytes.
(§5) 2.1 Test Compound (10 mM), Reference Substance: 7-Ethoxycoumarin, 30 mM, 7-Hydroxycoumarin, Reference Substance, 30 mM
(§6) Culture medium for thawing: Williams' E medium containing 5% fetal bovine serum and 30% Percoll solution and other auxiliary materials.
(§7) Culture medium for incubation: Williams' E medium (without phenol red), wherein containing 2 mM L-glutamine and 25 mM of hydroxyethyl piperazine ethanesulfonic acid.
(§8) Termination solution: acetonitrile containing 200 ng/mL of tolbutamide and labetalol as internal standard.
(§9) Dilution solution: ultrapure water. […]
(§10) The elimination rate constant k of the test compound and the control compound in hepatocyte was calculated by plotting the logarithm of the time to the residual rate, and the half-life (T1/2) and the intrinsic clearance rate in vitro (CLint) were obtained by the elimination rate constant k with the following formula: T1/2=0.693/k CLint(hep)=k/number of cells per mL(million cells/mL) CLint(liver)=CLint(hep)×ratio of liver weight to body weight×number of hepatocytes per gram of liver […]

[2] = In vivo pharmacokinetic study in SD rats; design: species or system Sprague Dawley rats; conditions: intravenous 3 mg/kg
Method: To test the in vivo pharmacokinetics of test compound in SD rats
Sprague Dawley rats (male, 6 to 10 weeks old, purchased from Beijing Vital River Laboratory Animal Co., LTD)
Compound 1 was mixed with normal saline to prepare a clear solution of 1 mg/mL for injection group administration, filtered by microporous membranes and ready for use. The test compound was administered intravenously at 3 mg/kg, and the solvent for intravenous administration was normal saline. Plasma samples were collected at 0, 0.083, 0.25, 0.5, 1.0, 2.0, 4.0, 8.0 and 24 hours after administration. The plasma concentration was determined by LC-MS/MS method, and the relevant pharmacokinetic parameters were calculated by non-compartmental model linear logarithmic trapezoidal method using WinNonlin™ Version 6.3 (Pharsight, Mountain View, CA) pharmacokinetic software.

Human hepatocyte = test: Metabolic stability (HMS) study in human hepatocytes; format: in vitro ADME; conditions: 0.5×10^6 cells/mL
Method: as §4, §5, §6, §7, §8, §9, §10

[3] = Plasma protein binding rate (PPB) test, human plasma; format: in vitro ADME; conditions: 2 μM, equilibrium dialysis 4 hours 37° C.
Method: as §1, §2, §3

Row | Compound | EC50 (Kappa receptor) [nM] | Unbound rate in plasma [1] [%] | Intrinsic clearance rate in liver (Rat hepatocyte) [mL/min/kg] | AUC0-last [2] [µM·h] | Cl (total clearance rate) [2] [mL/min/kg] | T1/2 (elimination half-life) [2] [h] | Vdss (steady-state apparent volume of distribution) [2] [L/kg] | C0 ([2]; read-out: C0 (initial concentration)) [µM] | Intrinsic clearance rate in liver (Human hepatocyte) [mL/min/kg] | Unbound rate in plasma [3] [%]
1 | C[C@@H](CNCC(=O)N[C@H](Cc1ccccc1)C(=O)N[C@@H](C(=O)N[C@H](CCCCN)C(=O)N1CCC(N)(C(=O)O)CC1)C1CCCC1)c1ccccc1 [Compound 2] (H-[Gly(N-(2R-Ph-propyl))][dF][dGly(cPent)][dK]-{Piperidin1yl(4-NH2,4-COOH)}) | 0.311 |  |  |  |  |  |  |  |  | 
2 | CC(=O)N1CC2(CCN(C(=O)[C@@H](CCCCN)NC(=O)[C@@H](CC3CC3)NC(=O)[C@@H](Cc3ccccc3)NC(=O)CNC[C@H](C)c3ccccc3)CC2)C1 [Compound 4] (H-[Gly(N-(2R-Ph-propyl))][dF][dAla(cPr)][dK]-X1) | 0.034 |  |  |  |  |  |  |  |  | 
3 | C[C@@H](CNCC(=O)N[C@H](Cc1ccccc1)C(=O)N[C@H](CC1CC1)C(=O)N[C@H](CCCCN)C(=O)N1CCC(N)(C(=O)O)CC1)c1ccccc1 [Compound 1] (H-[Gly(N-(2R-Ph-propyl))][dF][dAla(cPr)][dK]-{Piperidin1yl(4-NH2,4-COOH)}) | 0.085 | 44.7 | <29.9 | 7.2 | 9.90 | 1.33 | 0.29 | 17.6 | <17.8 | 55.2
